Results from publication PMC7901646, “Pyrrolo[2′,3′:3,4]cyclohepta[1,2-d][1,2]oxazoles, a New Class of Antimitotic Agents Active against Multiple Malignant Cell Types” (Journal of Medicinal Chemistry, 2020).
Like-named read-outs stand apart in the source and are kept apart here.

What was measured:
Format in all cases: cell-based
[1] = tested on: NCI-60 panel of human cancer cell lines; assay: NCI in vitro human tumor cell line screening, full panel; details: for MG_MID (mean graph midpoint): arithmetic mean for all tested cancer cell lines
Text: (§1) on the full NCI-60 panel comprising cancer cell lines derived from nine human cancer cell types (leukemia, non-small-cell lung, colon, central nervous system, melanoma, ovarian, renal, prostate, and breast).[50]

[2] = tested on: A498; assay: NCI-60 screen; details: Homo sapiens, Renal Cancer
Procedure: as §1, with “All the synthesized compounds 51–76 were tested at a 10^–5 M concentration for their antitumor activity on the” for “on the”

[3] = tested on: ACHN; assay: NCI-60 screen; details: Homo sapiens, Renal Cancer
Procedure: as §1, with “All the synthesized compounds 51–76 were tested at a 10^–5 M concentration for their antitumor activity on the” for “on the”

[4] = tested on: CAKI-1; assay: NCI-60 screen; details: Homo sapiens, Renal Cancer
Procedure: as §1, with “All the synthesized compounds 51–76 were tested at a 10^–5 M concentration for their antitumor activity on the” for “on the”

[5] = tested on: CCRF-CEM; assay: NCI-60 screen; details: Homo sapiens, Leukemia
Procedure: as §1, with “All the synthesized compounds 51–76 were tested at a 10^–5 M concentration for their antitumor activity on the” for “on the”

[6] = tested on: COLO 205; assay: NCI-60 screen; details: Homo sapiens, Colon Cancer
Procedure: as §1, with “All the synthesized compounds 51–76 were tested at a 10^–5 M concentration for their antitumor activity on the” for “on the”

[7] = tested on: DU-145; assay: NCI-60 screen; details: Homo sapiens, Prostate Cancer
Procedure: as §1, with “All the synthesized compounds 51–76 were tested at a 10^–5 M concentration for their antitumor activity on the” for “on the”

[8] = tested on: HCT-15; assay: NCI-60 screen; details: Homo sapiens, Colon Cancer
Procedure: as §1, with “All the synthesized compounds 51–76 were tested at a 10^–5 M concentration for their antitumor activity on the” for “on the”

[9] = tested on: HL-60(TB); assay: NCI-60 screen; details: Homo sapiens, Leukemia
Procedure: as §1, with “All the synthesized compounds 51–76 were tested at a 10^–5 M concentration for their antitumor activity on the” for “on the”

[10] = tested on: HT29; assay: NCI-60 screen; details: Homo sapiens, HT-29; Colon Cancer
Procedure: as §1, with “All the synthesized compounds 51–76 were tested at a 10^–5 M concentration for their antitumor activity on the” for “on the”

[11] = tested on: IGROV1; assay: NCI-60 screen; details: Homo sapiens, IGROV-1; Ovarian Cancer
Procedure: as §1, with “All the synthesized compounds 51–76 were tested at a 10^–5 M concentration for their antitumor activity on the” for “on the”

[12] = tested on: K-562; assay: NCI-60 screen; details: Homo sapiens, K562; Leukemia
Procedure: as §1, with “All the synthesized compounds 51–76 were tested at a 10^–5 M concentration for their antitumor activity on the” for “on the”

[13] = tested on: M14; assay: NCI-60 screen; details: Homo sapiens, Melanoma
Procedure: as §1, with “All the synthesized compounds 51–76 were tested at a 10^–5 M concentration for their antitumor activity on the” for “on the”

[14] = tested on: MDA-MB-231/ATCC; assay: NCI-60 screen; details: Homo sapiens, Breast Cancer
Procedure: as §1, with “All the synthesized compounds 51–76 were tested at a 10^–5 M concentration for their antitumor activity on the” for “on the”

[15] = tested on: MDA-MB-435; assay: NCI-60 screen; details: Homo sapiens, Melanoma
Procedure: as §1, with “All the synthesized compounds 51–76 were tested at a 10^–5 M concentration for their antitumor activity on the” for “on the”

[16] = tested on: NCI-H226; assay: NCI-60 screen; details: Homo sapiens, Non-Small-Cell Lung Cancer
Procedure: as §1, with “All the synthesized compounds 51–76 were tested at a 10^–5 M concentration for their antitumor activity on the” for “on the”

[17] = tested on: NCI-H460; assay: NCI-60 screen; details: Homo sapiens, Non-Small-Cell Lung Cancer
Procedure: as §1, with “All the synthesized compounds 51–76 were tested at a 10^–5 M concentration for their antitumor activity on the” for “on the”

[18] = tested on: PC-3; assay: NCI-60 screen; details: Homo sapiens, Prostate Cancer
Procedure: as §1, with “All the synthesized compounds 51–76 were tested at a 10^–5 M concentration for their antitumor activity on the” for “on the”

[19] = tested on: RPMI-8226; assay: NCI-60 screen; details: Homo sapiens, Leukemia
Procedure: as §1, with “All the synthesized compounds 51–76 were tested at a 10^–5 M concentration for their antitumor activity on the” for “on the”

[20] = tested on: SF-268; assay: NCI-60 screen; details: Homo sapiens, CNS Cancer
Procedure: as §1, with “All the synthesized compounds 51–76 were tested at a 10^–5 M concentration for their antitumor activity on the” for “on the”

[21] = tested on: SK-OV-3; assay: NCI-60 screen; details: Homo sapiens, Ovarian Cancer
Procedure: as §1, with “All the synthesized compounds 51–76 were tested at a 10^–5 M concentration for their antitumor activity on the” for “on the”

[22] = tested on: SW-620; assay: NCI-60 screen; details: Homo sapiens, Colon Cancer
Procedure: as §1, with “All the synthesized compounds 51–76 were tested at a 10^–5 M concentration for their antitumor activity on the” for “on the”

[23] = tested on: KM12; assay: NCI-60 screen; details: Homo sapiens, Colon Cancer
Text: as §1

[24] = tested on: LOX IMVI; assay: NCI-60 screen; details: Homo sapiens, Melanoma
Text: as §1

[25] = tested on: NCI-H522; assay: NCI-60 screen; details: Homo sapiens, Non-Small-Cell Lung Cancer
Text: as §1

[26] = tested on: OVCAR-3; assay: NCI-60 screen; details: Homo sapiens, Ovarian Cancer
Text: as §1

[27] = tested on: HBL1 (ABC DLBCL); assay: MTT cell proliferation, lymphoma; details: Homo sapiens, 72 h; for activity at 1 µM: of untreated cells, read-out: Proliferating cells (%); for IC50: MTT
Procedure: (§2) All compounds were further tested at the concentration of 1 μM on four cell lines derived from distinct lymphoma histotypes, plus two with secondary resistance to the PI3Kδ inhibitor idelalisib[51] or to the BTK inhibitor ibrutinib.[52] […] For comparison, the same experiments were conducted using compound 3, but the response to it was minimal, and thus it was not considered further.
(§3) Established human cell lines derived from germinal center B-cell (GCB) (SU-DHL-10), activated B-cell (ABC) (HBL1) diffuse large B-cell lymphoma (DLBCL), mantle cell lymphoma (MCL) (MINO), splenic marginal zone lymphoma (SMZL) (parental VL51, VL51 idelalisib resistant clone, VL51 ibrutinib resistant clone) were cultured in culture RPMI-1640 media supplemented with fetal bovine serum (10%), penicillin–streptomycin–neomycin (∼5,000 units of penicillin, 5 mg of streptomycinm and 10 mg of neomycin/mL, Sigma), and L-glutamine (1%). Vincristine sulfate was purchased from Sigma-Aldrich. Cell line identities were confirmed by CellCheck test (IDEXX, BioResearch, Ludwigsburg, Germany). All compounds were dissolved in dimethyl sulfoxide to obtain a stock concentration of 10 mM.
(§4) The antiproliferative activity of all compounds was assessed by using the 3-(4.5-dimethylthiazolyl-2)-2,5-diphenyltetrazolium bromide (MTT) test. Cells were seeded in 96-well plates (nontissue culture treated) at a density of 1 × 10^5 cells/mL and treated with a single concentration of 1 μM for 72 h. […] In this case, cells were treated in triplicate with serially diluted compounds in the appropriate tissue culture medium at a range of 40–10 000 nM. Cells were incubated for 72 h at 37 °C, 5% CO2. Wells containing medium only were included on each plate and served as blanks for absorbance readings. MTT (Sigma, Buchs, Switzerland) was prepared as a 5 mg/mL stock solution in phosphate buffered saline (PBS) and filter-sterilized. MTT solution (22 μL) was added to each well, and tissue culture plates were incubated at 37 °C for 4 h. Cells were then lysed with 25% sodium dodecyl sulfate lysis buffer, and absorbance was read at 570 nm using a Beckman Coulter-AD340 plate reader.

[28] = tested on: MINO (MCL); assay: MTT cell proliferation, lymphoma; details: Homo sapiens, 72 h; for activity at 1 µM: of untreated cells, read-out: Proliferating cells (%); for IC50: MTT
Procedure: as §2, §3, §4

[29] = tested on: SU-DHL-10 (GCB DLBCL); assay: MTT cell proliferation, lymphoma; details: Homo sapiens, SU-DHL10, 72 h; for activity at 1 µM: of untreated cells, read-out: Proliferating cells (%); for IC50: MTT
Procedure: as §2, §3, §4

[30] = tested on: VL51 (MZL); assay: MTT cell proliferation, lymphoma; details: Homo sapiens, 72 h; for activity at 1 µM: of untreated cells, read-out: Proliferating cells (%); for IC50: MTT
Procedure: as §2, §3, §4

[31] = tested on: VL51 ibrutinib-resistant; assay: MTT cell proliferation, lymphoma; details: Homo sapiens, 72 h, of untreated cells, read-out: Proliferating cells (%)
Procedure: as §2, §3, §4

[32] = tested on: VL51 idelalisib-resistant; assay: MTT cell proliferation, lymphoma; details: Homo sapiens, 72 h, of untreated cells, read-out: Proliferating cells (%)
Procedure: as §2, §3, §4

Compound	MG_MID (mean graph midpoint) ([1]; full NCI panel)	GI50 [2]	GI50 [3]	GI50 [4]	GI50 [5]	GI50 [6]	GI50 [7]	GI50 [8]	GI50 [9]	GI50 [10]	GI50 [11]	GI50 [12]	GI50 [13]	GI50 [14]	GI50 [15]	GI50 [16]	GI50 [17]	GI50 [18]	GI50 [19]	GI50 [20]	other results
CCOC(=O)c1cc2c(n1Cc1cc(OC)cc(OC)c1)-c1oncc1CCC2 [Compound 66, Ethyl 9-(3,5-Dimethoxybenzyl)-4,5,6,9-tetrahydropyrrolo[2′,3′:3,4]cyclohepta[1,2-d][1,2]oxazole-8-carboxylate]	0.08 µM	20 nM	60 nM	50 nM	50 nM	30 nM	40 nM	40 nM	30 nM	30 nM	60 nM	40 nM	50 nM	240 nM	10 nM	7980 nM	40 nM	40 nM	50 nM	50 nM	GI50 ([1]; Homo sapiens, prostate subpanel, read-out: GI50): 40 nM; mean values of subpanel ([1]; colon and CNS cancers): 0.06 µM; GI50 ([1]; full NCI panel, five concentrations 10^–4–10^–8 M, read-out: GI50 (concentration that inhibits 50% net cell growth), range over panel): 10 to 13400 nM; calculated MG_MID value for each subpanel ([1]; melanoma, prostate and renal subpanels): 0.04 µM; GI50 [21]: 50 nM; GI50 [22]: 40 nM; GI50 [23]: 30 nM; GI50 [24]: 50 nM; GI50 [25]: 20 nM; GI50 [26]: 20 nM; activity at 1 µM [27]: 24.1%; IC50 [27]: 300 nM; activity at 1 µM [28]: 9.1%; IC50 [28]: 250 nM; activity at 1 µM [29]: 11.3%; IC50 [29]: 250 nM; activity at 1 µM [30]: 40.1%; IC50 [30]: 250 nM; activity at 1 µM [31]: 40.5%; activity at 1 µM [32]: 34.3%
CCOC(=O)c1cc2c(n1Cc1ccccc1OC)-c1oncc1CCC2 [Compound 62, Ethyl 9-(2-Methoxybenzyl)-4,5,6,9-tetrahydropyrrolo[2′,3′:3,4]cyclohepta[1,2-d][1,2]oxazole-8-carboxylate]	4.47 µM	3460 nM	16600 nM	3510 nM	2870 nM	870 nM	5270 nM	2240 nM	3040 nM	910 nM	1990 nM	1590 nM	3670 nM	9120 nM	350 nM	> 100000 nM	3880 nM	2480 nM	4110 nM	46200 nM	GI50 ([1]; Homo sapiens, full NCI panel, five concentrations 10^–4–10^–8 M, read-out: GI50 (concentration that inhibits 50% net cell growth), range over panel): 300 to 46200 nM; GI50 [21]: 2700 nM; GI50 [22]: 2020 nM; GI50 [23]: 2100 nM; GI50 [24]: 7640 nM; GI50 [25]: 350 nM; GI50 [26]: 870 nM; activity at 1 µM [27]: 128%; IC50 [27]: > 5000 nM; activity at 1 µM [28]: 104%; IC50 [28]: 4000 nM; activity at 1 µM [29]: 51.1%; IC50 [29]: 3600 nM; activity at 1 µM [30]: 71.3%; IC50 [30]: 3200 nM; activity at 1 µM [31]: 80.3%; activity at 1 µM [32]: 63.6%
